In BindingDB's records for doi:10.1016/S0960-894X(00)80067-0 (1994):

Assay: Compound was tested for inhibition of partially purified squalene epoxidase

IC50	SMILES
500 µM	CCN(Cc1cccc(OCc2cc(-c3cccs3)cs2)c1)c1cc(O)cc(C2(C(F)(F)F)N=N2)c1 [3-{[3-([2,3']Bithiophenyl-5'-ylmethoxy)-benzyl]-ethyl-amino}-5-(3-trifluoromethyl-3H-diazirin-3-yl)-phenol]
500 µM	CCN(Cc1cccc(OCc2cc(-c3cccs3)cs2)c1)c1ccc(C(=O)c2ccc(CCl)cc2)cc1 [(4-{[3-([2,3']Bithiophenyl-5'-ylmethoxy)-benzyl]-ethyl-amino}-phenyl)-(4-chloromethyl-phenyl)-methanone]
500 µM	CCN(CC=CC#CC(C)(C)C)Cc1cccc(OCc2cc(CO)cc(C3(C(F)(F)F)N=N3)c2)c1 [[3-(3-{[((E)-6,6-Dimethyl-hept-2-en-4-ynyl)-ethyl-amino]-methyl}-phenoxymethyl)-5-(3-trifluoromethyl-3H-diazirin-3-yl)-phenyl]-methanol]
